Results from patent US20060241145A1, “Piperidine derivative crystal, process for producing the same, and use” (priority 2005, published 2006).
Counter-ions that a name gives are not always drawn. Blank lines part the entries; values can stand above or below the compound they belong to.

Experiments:
substance P receptor = target: T1, substance P receptor (Homo sapiens, UniProt P25103); assay: Radioligand receptor binding inhibitory activity (binding inhibitory activity using receptor from human lymphoblast cells (IM-9)); settings: 125I-BHSP (substance P labeled with [125I]), receptor from IM-9 cells, 25° C. 30 min
T1 construct: The receptors were prepared from human lymphoblast cells (IM-9); endogenous in cells; host or cells: IM-9 human lymphoblast cells (membrane preparation)
Method: Radioligand receptor binding inhibitory activity (Binding inhibitory activity using receptor from human lymphoblast cells (IM-9))
The method of M. A. Cascieri et al., “Molecular Pharmacology 42, p. 458 (1992)” was modified and used. The receptors were prepared from human lymphoblast cells (IM-9). IM-9 cells (2×10^5 cells/mL) were incubated for 3 days (one liter), which were then subjected to centrifuge for 5 min. at 500×G to obtain cell pellets. The obtained pellets were washed once with phosphate buffer (Flow Laboratories, CAT. No. 28-103-05), which were then homogenized using Polytron homogenizer (“Kinematika”, Germany) in 30 mL of 50 mM Tris-HCl buffer (pH 7.4) containing 120 mM sodium chloride, 5 mM potassium chloride, 2 μg/mL chymostatin, 40 μg/mL bacitracin, 5 μg/mL phosphoramidon, 0.5 mM phenylmethylsulfonyl fluoride, 1 mM ethylenediamine tetra-acetate, which was subjected to centrifuge at 40,000×G for 20 min. The residue was washed twice with 30 mL of the buffer, which was then preserved frozen (−80° C.) as a specimen of the receptors.
The specimen was suspended in a reaction buffer (50 mM Tris-HCl buffer (pH 7.4), 0.02% bovine serum albumin, 1 mM phenylmethylsulfonyl fluoride, 2 μg/mL chymostatin, 40 μg/mL bacitracin and 3 mM manganese chloride) to have protein in the concentration of 0.5 mg/mL of protein and 100 μL portion of the suspension was used in the reaction. After addition of the sample and ^125I-BHSP (0.46 KBq), the reaction was allowed to proceed in 0.2 mL of reaction buffer at 25° C. for 30 min. The amount of nonspecific binding was determined by adding substance P at a final concentration of 2×10^−6 M.
After the reaction, using a cell harvester (290 PHD, Cambridge Technology, Inc, U.S.A.), the reaction solution was filterd through a glass filter (GF/B, Whatman, U.S.A.), which was immersed in 0.1% polyethyleneimine for 24 hrs. and dried. After washing three times with 250 μL of 50 mM Tris-HCl buffer (pH 7.4) containing 0.02% bovine serum albumin, the radioactivity remaining on the filter was determined with a gamma counter.
The antagonistic activity of each compound obtained in Examples was determined in terms of the concentration necessary to cause 50% inhibition (IC50 value) under the above-described conditions, and the results were shown in Table 9.
The radio ligand means substance P labeled with [^125I].

[1] = system: urethane anesthetized male guinea pigs; assay: Bladder capacity increasing action in urethane anesthetized guinea pigs; assay type: in vivo, guinea pig; settings: for changes in bladder capacity (vs. before administration, %) / changes in voiding pressure (vs. before administration, %): mean ± standard error; for effect on bladder capacity (in words) / effect on voiding pressure (in words): intravenous, summary of Table 10
Excerpt: Bladder Capacity Increasing Activity of Tachykinin Receptor Antagonist, Oxybutynin and Tolterodine (Bladder Capacity Increasing Action in Urethane Anesthetized Guinea Pigs)
A urinary frequency/urinary incontinence suppressing effect of a substance having antagonistic action for tachykinin receptors was shown in terms of the ability to increase bladder capacity in urethane anesthetized male guinea pigs and compared with that of oxybutynin and tolterodine, which are therapeutic drugs for overactive bladder. Using male guinea pig under anesthesia, after emptying the bladder by suction, saline was infused into the bladder at a constant rate (0.3 mL/min.) until voiding. This procedure was repeated to confirm stable bladder capacity (amount of saline injected before induction of voiding). After confirming a stable response, a compound dissolved in DMSO was intravenously administered and the action was measured. Changes in the bladder capacity and voiding pressure after drug administration were measured.

T1 sequence (P25103 whole entry): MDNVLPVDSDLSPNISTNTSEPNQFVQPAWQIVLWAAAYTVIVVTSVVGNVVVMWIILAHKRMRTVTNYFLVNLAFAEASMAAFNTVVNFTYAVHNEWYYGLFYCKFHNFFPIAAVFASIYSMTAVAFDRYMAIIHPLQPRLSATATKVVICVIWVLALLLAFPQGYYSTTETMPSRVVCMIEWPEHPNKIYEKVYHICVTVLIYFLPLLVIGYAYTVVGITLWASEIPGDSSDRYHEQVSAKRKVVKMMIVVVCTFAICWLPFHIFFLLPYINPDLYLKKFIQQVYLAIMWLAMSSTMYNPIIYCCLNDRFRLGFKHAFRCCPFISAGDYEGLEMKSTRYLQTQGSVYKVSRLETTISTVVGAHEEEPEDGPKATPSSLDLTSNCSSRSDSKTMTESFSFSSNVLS

IC50 (substance P receptor): 0.016 nM
Structure (SMILES): COc1ccc(-n2nnnc2C(F)(F)F)cc1CN[C@H]1CCN(C(=O)C(O)NC(C)=O)C[C@H]1c1ccccc1 (single isomer, unassigned) [Example 12]

IC50 (substance P receptor): 0.062 nM
Structure (SMILES): COc1ccc(-n2nnnc2C(F)(F)F)cc1CN[C@H]1CCN(C(=O)C(O)NC(C)=O)C[C@H]1c1ccccc1 (single isomer, unassigned) [Example 13]

IC50 (substance P receptor): 0.017 nM
Structure (SMILES): COc1ccc(-n2nnnc2C(F)(F)F)cc1CN[C@H]1CCN(C(=O)CNC=O)C[C@H]1c1ccccc1 [Example 5, {2-[(3R,4S)-4-({2-methoxy-5-[5-(trifluoromethyl)-1H-tetrazol-1-yl]benzyl}amino)-3-phenylpiperidin-1-yl]-2-oxoethyl}formamide]

IC50 (substance P receptor): 0.026 nM
Structure (SMILES): COc1ccc(-n2nnnc2C(F)(F)F)cc1CN[C@H]1CCN(C(C)=O)C[C@H]1c1ccccc1 [Example 6, (3R,4S)-1-acetyl-N-{2-methoxy-5-[5-(trifluoromethyl)-1H-tetrazol-1-yl]benzyl}-3-phenylpiperidine-4-amine monohydrochloride]

IC50 (substance P receptor): 0.015 nM
Structure (SMILES): COc1ccc(-n2nnnc2C(F)(F)F)cc1CN[C@H]1CCN(C(=O)CN2C(=O)CCC2=O)C[C@H]1c1ccccc1 [Example 7, 1-{2-[(3R,4S)-4-({2-methoxy-5-[5-(trifluoromethyl)-1H-tetrazol-1-yl]benzyl}amino)-3-phenylpiperidin-1-yl]-2-oxoethyl}pyrrolidine-2,5-dione monohydrochloride]

IC50 (substance P receptor): 0.022 nM
Structure (SMILES): COc1ccc(-n2nnnc2C(F)(F)F)cc1CN[C@H]1CCN(C(=O)CS(C)(=O)=O)C[C@H]1c1ccccc1 [Example 8, (3R,4S)-N-{2-methoxy-5-[5-(trifluoromethyl)-1H-tetrazol-1-yl]benzyl}-1-[(methylsulfonyl)acetyl]-3-phenylpiperidine-4-amine monohydrochloride]

IC50 (substance P receptor): 0.012 nM
Structure (SMILES): CCC(=O)NCC(=O)N1CC[C@H](NCc2cc(-n3nnnc3C(F)(F)F)ccc2OC)[C@H](c2ccccc2)C1 [Example 9, N-{2-[(3R,4S)-4-({2-methoxy-5-[5-(trifluoromethyl)-1H-tetrazol-1-yl]benzyl}amino)-3-phenylpiperidin-1-yl]-2-oxoethyl}propanamide monohydrochloride]

IC50 (substance P receptor): 0.016 nM
Structure (SMILES): COc1ccc(-n2nnnc2C(F)(F)F)cc1CN[C@H]1CCN(C(=O)C2CCNCC2)C[C@H]1c1ccccc1 [Example 10, (3R,4S)-N-(2-methoxy-5-[5-(trifluoromethyl)-1H-tetrazol-1-yl]benzyl)-3-phenyl-1-(piperidin-4-ylcarbonyl)piperidine-4-amine dihydrochloride]

IC50 (substance P receptor): 0.021 nM
Structure (SMILES): COc1ccc(-n2nnnc2C(F)(F)F)cc1CN[C@H]1CCN(C(=O)C2CCN(S(C)(=O)=O)CC2)C[C@H]1c1ccccc1 [Example 11, (3R,4S)-N-{2-methoxy-5-[5-(trifluoromethyl)-1H-tetrazol-1-yl]benzyl}-1-{[1-(methylsulfonyl)piperidin-4-yl]carbonyl}-3-phenylpiperidine-4-amine monohydrochloride]

Structure (SMILES): COc1ccc(-n2nnnc2C(F)(F)F)cc1CN[C@H]1CCN(C(=O)CNC(C)=O)C[C@H]1c1ccccc1 [Example 20, N-{2-[(3R,4S)-4-({2-methoxy-5-[5-(trifluoromethyl)-1H-tetrazol-1-yl]benzyl}amino)-3-phenylpiperidin-1-yl]-2-oxoethyl}acetamide]
IC50 (substance P receptor): 0.017 nM
changes in bladder capacity (vs. before administration, %) ([1]; dose 0.01 mg/kg intravenously): 5.8 ± 11.1%
changes in voiding pressure (vs. before administration, %) ([1]; dose 0.01 mg/kg intravenously): 10.1 ± 8.4%
changes in bladder capacity (vs. before administration, %) ([1]; dose 0.03 mg/kg intravenously): 3.0 ± 8.2%
changes in voiding pressure (vs. before administration, %) ([1]; dose 0.03 mg/kg intravenously): 18.5 ± 18.5%
changes in bladder capacity (vs. before administration, %) ([1]; dose 0.1 mg/kg intravenously): 42.9 ± 6.0 %
changes in voiding pressure (vs. before administration, %) ([1]; dose 0.1 mg/kg intravenously): 3.0 ± 8.0%
changes in bladder capacity (vs. before administration, %) ([1]; dose 0.3 mg/kg intravenously): 71.2 ± 25.2 %
changes in voiding pressure (vs. before administration, %) ([1]; dose 0.3 mg/kg intravenously): 4.9 ± 11.0%
effect on bladder capacity (in words) [1]: increased the bladder capacity in a dose-dependent manner
effect on voiding pressure (in words) [1]: without affecting the voiding pressure

Structure (SMILES): CCN(CC)CC#CCOC(=O)C(O)(c1ccccc1)C1CCCCC1 (centres unmarked) [oxybutynin]
changes in bladder capacity (vs. before administration, %) ([1]; dose 0.1 mg/kg intravenously): 1.8 ± 7.0%
changes in voiding pressure (vs. before administration, %) ([1]; dose 0.1 mg/kg intravenously): 4.3 ± 7.5%
changes in bladder capacity (vs. before administration, %) ([1]; dose 0.3 mg/kg intravenously): 19.3 ± 5.1 %
changes in voiding pressure (vs. before administration, %) ([1]; dose 0.3 mg/kg intravenously): −11.6 ± 5.4%
changes in bladder capacity (vs. before administration, %) ([1]; dose 1 mg/kg intravenously): 43.6 ± 7.7 %
changes in voiding pressure (vs. before administration, %) ([1]; dose 1 mg/kg intravenously): −12.1 ± 8.8%
changes in bladder capacity (vs. before administration, %) ([1]; dose 3 mg/kg intravenously): 36.8 ± 6.6 %
changes in voiding pressure (vs. before administration, %) ([1]; dose 3 mg/kg intravenously): −6.0 ± 5.6%
effect on bladder capacity (in words) [1]: significantly increased the bladder capacity
effect on voiding pressure (in words) [1]: showed lower voiding pressure

Structure (SMILES): Cc1ccc(O)c([C@H](CCN(C(C)C)C(C)C)c2ccccc2)c1 [tolterodine]
changes in bladder capacity (vs. before administration, %) ([1]; dose 1 mg/kg intravenously): −3.4 ± 4.4%
changes in voiding pressure (vs. before administration, %) ([1]; dose 1 mg/kg intravenously): 0.1 ± 5.7%
changes in bladder capacity (vs. before administration, %) ([1]; dose 3 mg/kg intravenously): 14.8 ± 7.6%
changes in voiding pressure (vs. before administration, %) ([1]; dose 3 mg/kg intravenously): −6.7 ± 6.5 %
changes in bladder capacity (vs. before administration, %) ([1]; dose 10 mg/kg intravenously): 31.7 ± 9.1 %
changes in voiding pressure (vs. before administration, %) ([1]; dose 10 mg/kg intravenously): −15.5 ± 4.6 %
effect on bladder capacity (in words) [1]: significantly increased the bladder capacity
effect on voiding pressure (in words) [1]: voiding pressure lowering action of tolterodine was significant
